# According to patent US12268690B2, “Treatments for mutations in acute myeloid leukemia” (OREGON HEALTH & SCIENCE UNIVERSITY, priority 2018, dated 2025):
# Test system: freshly isolated mononuclear cells from AML samples
# Assay: Ex vivo functional drug screen (MTS viability, AUC) on primary AML samples, compared by mutation or clinical group
# Type: cell-based, human
smiles,measurement,setting,value
COc1cc2c(Oc3ccc(NC(=O)C4(C(=O)Nc5ccc(F)cc5)CC4)cc3F)ccnc2cc1OCCCN1CCOCC1 [Foretinib],drug sensitivity mutant vs wild type (average difference in AUC; top left quadrant of volcano plot),FLT3,Foretinib (XL880)
same,drug sensitivity mutant vs wild type (average difference in AUC; top left quadrant of volcano plot),FLT3_ITD:TET2:DNMT3A,Foretinib
same,drug sensitivity mutant vs wild type (average difference in AUC; top left quadrant of volcano plot),FLT3_ITD:WT1,foretinib
same,drug sensitivity mutant vs wild type (average difference in AUC; top left quadrant of volcano plot),IDH2,Foretinib
same,drug sensitivity mutant vs wild type (average difference in AUC; top left quadrant of volcano plot),NPM1,Foretinib
same,drug sensitivity mutant vs wild type (average difference in AUC; top left quadrant of volcano plot),NPM1:DNMT3A,foretinib
same,drug sensitivity mutant vs wild type (average difference in AUC; top left quadrant of volcano plot),NPM1:FLT3,Foretinib
same,drug sensitivity mutant vs wild type (average difference in AUC; top left quadrant of volcano plot),NPM1:FLT3_ITD,foretinib
same,drug sensitivity mutant vs wild type (average difference in AUC; top left quadrant of volcano plot),NPM1:FLT3_ITD:DNMT3A,foretinib
same,drug sensitivity mutant vs wild type (average difference in AUC; top left quadrant of volcano plot),NPM1:SRSF2,Foretinib
same,drug sensitivity mutant vs wild type (average difference in AUC; top left quadrant of volcano plot),SMC1A,foretinib
CN1CC[C@H](c2c(O)cc(O)c3c(=O)cc(-c4ccccc4Cl)oc23)[C@H](O)C1 [Flavopiridol],drug sensitivity mutant vs wild type (average difference in AUC; top left quadrant of volcano plot),NRAS,"(GSK1120212), or Flavopiridol"
CC(C)(C)c1cc(NC(=O)Nc2ccc(-c3cn4c(n3)sc3cc(OCCN5CCOCC5)ccc34)cc2)no1 [Quizartinib],drug sensitivity mutant vs wild type (average difference in AUC; top left quadrant of volcano plot),NPM1,quizartinib
same,drug sensitivity mutant vs wild type (average difference in AUC; top left quadrant of volcano plot),NPM1:DNMT3A,Quizartinib
same,drug sensitivity mutant vs wild type (average difference in AUC; top left quadrant of volcano plot),NPM1:IDH2,quizartinib
same,drug sensitivity mutant vs wild type (average difference in AUC; top left quadrant of volcano plot),NPM1:SRSF2,quizartinib
Cn1c2ccccc2c2c3c(c4c5ccccc5n(CCC#N)c4c21)CNC3=O [Go6976],drug sensitivity mutant vs wild type (average difference in AUC; top left quadrant of volcano plot),CBFB.MYH11,Go6976
CC(C)(C)c1ccc(S(=O)(=O)/C=C/C#N)cc1 [Bay 11-7085],drug sensitivity mutant vs wild type (average difference in AUC; top left quadrant of volcano plot),SMC1A,Bay 11-
Cn1c(=O)n(-c2ccc(C(C)(C)C#N)cc2)c2c3cc(-c4cnc5ccccc5c4)ccc3ncc21 [BEZ2345],drug sensitivity mutant vs wild type (average difference in AUC; top left quadrant of volcano plot),RUNX1,BEZ2345
same,correlation of mutation with drug sensitivity,mutation of RUNX1,correlated with sensitivity
COc1c(Cl)cc2c([nH]c3cnccc32)c1NC(=O)c1cccnc1C [MLN120B],drug sensitivity mutant vs wild type (average difference in AUC; top left quadrant of volcano plot),NPM1:IDH2,MLN120B
same,drug sensitivity mutant vs wild type (average difference in AUC; top left quadrant of volcano plot),NPM1:SRSF2,MLN120B
Cc1cc(Nc2nc(N[C@@H](C)c3ncc(F)cn3)ncc2Cl)n[nH]1 [AZD1480],drug sensitivity mutant vs wild type (average difference in AUC; top left quadrant of volcano plot),NPM1:SRSF2:IDH2,AZD1480
"C[C@H](NC(=O)Cc1cc(F)cc(F)c1)C(=O)N[C@@H]1C(=O)N(C)c2ccccc2-c2ccccc21 [DBZ, N-[(1S)-2-[[(7S)-6,7-Dihydro-5-methyl-6-oxo-5H-dibenz[b,d]azepin-7-yl]amino]-1-methyl-2-oxoethyl]-3,5-difluorobenzeneacetamide]",drug sensitivity mutant vs wild type (average difference in AUC; top left quadrant of volcano plot),FLT3_ITD:IDH1,DBZ
same,drug sensitivity mutant vs wild type (average difference in AUC; top left quadrant of volcano plot),IDH2,DBZ
same,drug sensitivity mutant vs wild type (average difference in AUC; top left quadrant of volcano plot),NPM1,DBZ
same,drug sensitivity mutant vs wild type (average difference in AUC; top left quadrant of volcano plot),NPM1:IDH2,DBZ
same,drug sensitivity mutant vs wild type (average difference in AUC; top left quadrant of volcano plot),NPM1:SRSF2,DBZ
same,drug sensitivity mutant vs wild type (average difference in AUC; top left quadrant of volcano plot),NPM1:SRSF2:IDH2,DBZ
C#Cc1cccc(Nc2ncnc3cc(OCCOC)c(OCCOC)cc23)c1 [erlotinib],drug sensitivity mutant vs wild type (average difference in AUC; top left quadrant of volcano plot),FLT3_ITD:DNMT3A,erlotinib
same,drug sensitivity mutant vs wild type (average difference in AUC; top left quadrant of volcano plot),NPM1,erlotinib
same,drug sensitivity mutant vs wild type (average difference in AUC; top left quadrant of volcano plot),NPM1:FLT3_ITD:DNMT3A,erlotinib
same,drug sensitivity mutant vs wild type (average difference in AUC; top left quadrant of volcano plot),NPM1:FLT3_ITD:TET2,erlotinib
same,drug sensitivity mutant vs wild type (average difference in AUC; top left quadrant of volcano plot),NPM1:IDH1,erlotinib
same,drug sensitivity mutant vs wild type (average difference in AUC; top left quadrant of volcano plot),NPM1:IDH2,erlotinib
same,drug sensitivity mutant vs wild type (average difference in AUC; top left quadrant of volcano plot),NPM1:SRSF2,erlotinib
